In general, inhibition refers to the change of the read-out against control, counted positive when it falls.

The source of these data is article PMC4854315, “Discovery of a novel allosteric inhibitor-binding site in ERK5: comparison with the canonical kinase hinge ATP-binding site” (Acta Crystallographica. Section D, Structural Biology, 2016).

Common to all, as to test: Z'-LYTE kinase panel
Holding throughout (assay type): biochemical

The target in one experiment is T1, CDC42 BPA (MRCKA) (Homo sapiens, UniProt Q5VT25).
T1 construct: purchased ThermoFisher (SelectScreen, Z'-LYTE)
Put shortly:
(§1)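 Single-point screen, 10 µM compound; % inhibition read by Z′-LYTE (FRET-based) format per standard protocol; 225-kinase panel.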

The next experiment deals with T2, MARK3 (Homo sapiens, UniProt P27448).
T2 construct: purchased ThermoFisher (SelectScreen, Z'-LYTE)
T2 sequence (P27448 whole entry): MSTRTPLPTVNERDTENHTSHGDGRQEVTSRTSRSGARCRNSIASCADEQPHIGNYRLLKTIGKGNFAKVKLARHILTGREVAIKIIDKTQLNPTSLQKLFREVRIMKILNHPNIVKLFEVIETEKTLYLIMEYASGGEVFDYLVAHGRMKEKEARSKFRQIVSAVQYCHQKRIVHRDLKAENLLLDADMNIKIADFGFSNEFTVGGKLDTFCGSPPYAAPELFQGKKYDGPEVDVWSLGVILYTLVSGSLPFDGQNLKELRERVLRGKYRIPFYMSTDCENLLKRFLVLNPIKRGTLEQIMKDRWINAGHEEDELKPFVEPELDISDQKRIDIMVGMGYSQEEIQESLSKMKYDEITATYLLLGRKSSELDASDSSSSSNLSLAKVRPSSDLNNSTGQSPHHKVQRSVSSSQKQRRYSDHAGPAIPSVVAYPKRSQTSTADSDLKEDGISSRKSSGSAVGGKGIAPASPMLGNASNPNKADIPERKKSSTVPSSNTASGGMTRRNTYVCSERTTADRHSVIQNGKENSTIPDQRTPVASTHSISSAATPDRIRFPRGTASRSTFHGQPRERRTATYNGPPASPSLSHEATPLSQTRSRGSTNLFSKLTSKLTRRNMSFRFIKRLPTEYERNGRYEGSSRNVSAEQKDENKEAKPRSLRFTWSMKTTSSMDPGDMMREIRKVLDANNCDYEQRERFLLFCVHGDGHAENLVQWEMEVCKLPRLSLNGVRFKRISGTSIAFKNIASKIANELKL
Put shortly: as §1

The next experiment has as its target T3, MUSK (Homo sapiens, UniProt O15146).
T3 construct: purchased ThermoFisher (SelectScreen, Z'-LYTE)
T3 sequence (O15146 24-869): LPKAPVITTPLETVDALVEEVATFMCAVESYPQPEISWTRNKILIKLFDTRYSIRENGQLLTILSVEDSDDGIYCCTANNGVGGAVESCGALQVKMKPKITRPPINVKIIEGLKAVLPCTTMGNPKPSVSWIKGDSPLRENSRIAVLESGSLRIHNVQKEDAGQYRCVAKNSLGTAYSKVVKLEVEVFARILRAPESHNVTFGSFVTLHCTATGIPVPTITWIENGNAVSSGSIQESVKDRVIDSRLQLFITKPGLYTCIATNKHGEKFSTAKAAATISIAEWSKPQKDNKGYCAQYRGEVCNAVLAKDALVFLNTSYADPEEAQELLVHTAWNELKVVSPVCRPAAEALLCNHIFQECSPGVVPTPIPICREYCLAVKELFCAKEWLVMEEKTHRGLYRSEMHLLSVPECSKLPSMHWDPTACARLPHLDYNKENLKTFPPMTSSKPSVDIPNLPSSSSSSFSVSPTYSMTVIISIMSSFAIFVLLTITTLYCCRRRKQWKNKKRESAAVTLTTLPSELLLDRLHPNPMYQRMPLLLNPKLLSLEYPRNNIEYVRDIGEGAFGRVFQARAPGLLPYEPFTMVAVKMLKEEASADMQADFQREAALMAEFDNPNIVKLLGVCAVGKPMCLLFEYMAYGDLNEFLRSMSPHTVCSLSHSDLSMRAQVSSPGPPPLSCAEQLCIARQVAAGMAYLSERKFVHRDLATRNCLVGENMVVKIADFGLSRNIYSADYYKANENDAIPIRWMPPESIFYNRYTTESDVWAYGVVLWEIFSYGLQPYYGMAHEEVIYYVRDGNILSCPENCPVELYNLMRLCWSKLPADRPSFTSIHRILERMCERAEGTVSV
In outline: as §1

Another experiment addresses T4, ACVR1B (ALK4) (Homo sapiens, UniProt P36896).
T4 construct: purchased ThermoFisher (SelectScreen, Z'-LYTE)
T4 sequence (P36896 24-505): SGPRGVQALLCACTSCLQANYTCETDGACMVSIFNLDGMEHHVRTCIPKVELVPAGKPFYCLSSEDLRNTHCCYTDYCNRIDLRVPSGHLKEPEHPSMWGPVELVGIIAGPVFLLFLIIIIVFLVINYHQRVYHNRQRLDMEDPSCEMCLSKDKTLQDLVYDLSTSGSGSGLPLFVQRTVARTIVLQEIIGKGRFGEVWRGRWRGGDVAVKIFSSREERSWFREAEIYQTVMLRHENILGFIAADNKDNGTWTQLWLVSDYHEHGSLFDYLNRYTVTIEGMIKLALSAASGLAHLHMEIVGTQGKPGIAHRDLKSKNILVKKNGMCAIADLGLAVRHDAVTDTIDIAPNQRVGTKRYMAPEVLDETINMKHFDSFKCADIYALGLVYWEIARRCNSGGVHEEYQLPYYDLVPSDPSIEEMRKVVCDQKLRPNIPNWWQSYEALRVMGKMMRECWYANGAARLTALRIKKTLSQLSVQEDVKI
Put shortly:
as §1

Another experiment deals with T5, TXK (Homo sapiens, UniProt P42681).
T5 construct: purchased ThermoFisher (SelectScreen, Z'-LYTE)
T5 sequence (P42681 1-527): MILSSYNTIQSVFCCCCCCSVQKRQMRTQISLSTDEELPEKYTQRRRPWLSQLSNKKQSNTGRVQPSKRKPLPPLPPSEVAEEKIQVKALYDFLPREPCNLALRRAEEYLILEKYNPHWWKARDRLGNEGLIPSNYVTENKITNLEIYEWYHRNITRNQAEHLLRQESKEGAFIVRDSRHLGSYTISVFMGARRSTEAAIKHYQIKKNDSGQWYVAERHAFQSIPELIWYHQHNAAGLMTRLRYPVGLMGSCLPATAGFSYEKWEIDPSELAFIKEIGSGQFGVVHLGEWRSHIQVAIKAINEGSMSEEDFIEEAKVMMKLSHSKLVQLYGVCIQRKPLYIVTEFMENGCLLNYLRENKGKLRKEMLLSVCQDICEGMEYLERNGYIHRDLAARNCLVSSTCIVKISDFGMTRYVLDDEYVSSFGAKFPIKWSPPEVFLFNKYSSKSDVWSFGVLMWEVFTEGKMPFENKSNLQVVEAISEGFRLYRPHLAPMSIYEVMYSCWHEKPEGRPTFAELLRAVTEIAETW
In outline:
as §1

The target in a further experiment is T6, PAK1 (Homo sapiens, UniProt Q13153).
T6 construct: purchased ThermoFisher (SelectScreen, Z'-LYTE)
T6 sequence (Q13153 whole entry): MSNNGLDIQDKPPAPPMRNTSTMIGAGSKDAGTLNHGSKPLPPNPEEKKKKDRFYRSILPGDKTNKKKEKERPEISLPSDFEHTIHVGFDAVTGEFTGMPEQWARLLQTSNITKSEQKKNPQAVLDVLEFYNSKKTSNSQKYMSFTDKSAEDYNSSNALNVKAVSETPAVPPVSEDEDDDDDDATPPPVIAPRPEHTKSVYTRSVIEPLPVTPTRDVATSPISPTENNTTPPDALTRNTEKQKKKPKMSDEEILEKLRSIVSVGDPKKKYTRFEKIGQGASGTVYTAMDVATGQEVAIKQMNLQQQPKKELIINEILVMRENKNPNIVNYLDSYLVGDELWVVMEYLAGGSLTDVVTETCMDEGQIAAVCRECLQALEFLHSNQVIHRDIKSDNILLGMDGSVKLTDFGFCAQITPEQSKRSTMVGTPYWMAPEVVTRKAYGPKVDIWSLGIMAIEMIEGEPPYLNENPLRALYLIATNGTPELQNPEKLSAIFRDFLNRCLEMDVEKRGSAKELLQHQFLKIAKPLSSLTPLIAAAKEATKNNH
Put shortly: as §1

Another experiment concerns the target T7, MARK2 (Homo sapiens, UniProt Q7KZI7).
T7 construct: purchased ThermoFisher (SelectScreen, Z'-LYTE)
In outline:
as §1

In a further experiment the target is T8, CDK1/cyclin B (Homo sapiens, UniProt P06493).
T8 construct: purchased ThermoFisher (SelectScreen, Z'-LYTE)
Put shortly: as §1

For a further experiment, the target named is T9, PAK7 (KIAA1264) (Homo sapiens, UniProt Q9P286).
T9 construct: purchased ThermoFisher (SelectScreen, Z'-LYTE)
T9 sequence (Q9P286 whole entry): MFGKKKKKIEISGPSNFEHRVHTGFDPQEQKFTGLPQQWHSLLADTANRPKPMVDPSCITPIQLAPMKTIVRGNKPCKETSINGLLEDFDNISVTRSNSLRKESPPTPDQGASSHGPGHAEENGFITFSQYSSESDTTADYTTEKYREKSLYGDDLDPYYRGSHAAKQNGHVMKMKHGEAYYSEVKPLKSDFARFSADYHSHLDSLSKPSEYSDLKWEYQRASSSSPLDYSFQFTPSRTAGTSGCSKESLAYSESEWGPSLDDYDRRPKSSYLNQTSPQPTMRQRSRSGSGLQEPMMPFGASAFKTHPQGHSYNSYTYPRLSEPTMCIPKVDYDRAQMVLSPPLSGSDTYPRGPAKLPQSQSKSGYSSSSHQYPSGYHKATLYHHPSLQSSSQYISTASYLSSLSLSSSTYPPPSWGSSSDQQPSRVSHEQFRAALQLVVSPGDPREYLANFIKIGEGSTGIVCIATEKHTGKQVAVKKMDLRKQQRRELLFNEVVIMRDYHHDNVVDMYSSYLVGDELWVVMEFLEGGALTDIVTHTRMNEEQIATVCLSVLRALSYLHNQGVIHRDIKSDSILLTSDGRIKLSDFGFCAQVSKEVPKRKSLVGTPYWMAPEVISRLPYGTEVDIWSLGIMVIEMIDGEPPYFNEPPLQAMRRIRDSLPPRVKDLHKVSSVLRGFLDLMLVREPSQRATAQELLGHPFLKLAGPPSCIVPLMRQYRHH
Put shortly: as §1

A further experiment addresses T10, AMPK A1/B1/G1 (Homo sapiens, UniProt Q13131).
T10 construct: purchased ThermoFisher (SelectScreen, Z'-LYTE)
In outline: as §1

For a further experiment, the target named is T11, PAK4 (Homo sapiens, UniProt O96013).
T11 construct: purchased ThermoFisher (SelectScreen, Z'-LYTE)
T11 sequence (O96013 whole entry): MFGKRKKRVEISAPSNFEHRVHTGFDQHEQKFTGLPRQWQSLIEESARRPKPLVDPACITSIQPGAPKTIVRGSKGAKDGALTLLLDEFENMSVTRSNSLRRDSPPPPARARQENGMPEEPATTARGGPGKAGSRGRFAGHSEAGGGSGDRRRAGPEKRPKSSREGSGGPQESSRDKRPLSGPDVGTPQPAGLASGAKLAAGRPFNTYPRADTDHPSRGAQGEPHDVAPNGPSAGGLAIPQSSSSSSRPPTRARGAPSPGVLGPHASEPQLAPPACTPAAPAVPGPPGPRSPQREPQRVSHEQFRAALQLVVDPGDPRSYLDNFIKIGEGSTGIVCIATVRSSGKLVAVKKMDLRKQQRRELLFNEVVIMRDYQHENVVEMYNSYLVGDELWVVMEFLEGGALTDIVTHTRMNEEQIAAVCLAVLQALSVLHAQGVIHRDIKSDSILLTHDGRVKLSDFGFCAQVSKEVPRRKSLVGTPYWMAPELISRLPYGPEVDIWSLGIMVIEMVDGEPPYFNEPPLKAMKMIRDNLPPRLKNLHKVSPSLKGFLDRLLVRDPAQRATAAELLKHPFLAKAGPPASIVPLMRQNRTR
In outline: as §1

The target of a further experiment is T12, ERBB2 (HER2) (Homo sapiens, UniProt P04626).
T12 construct: purchased ThermoFisher (SelectScreen, Z'-LYTE)
Put shortly: as §1

The next experiment concerns the target T13, CSNK2A1 (CK2 alpha 1) (Homo sapiens, UniProt P68400).
T13 construct: purchased ThermoFisher (SelectScreen, Z'-LYTE)
Put shortly:
as §1

T13 sequence (P68400 whole entry): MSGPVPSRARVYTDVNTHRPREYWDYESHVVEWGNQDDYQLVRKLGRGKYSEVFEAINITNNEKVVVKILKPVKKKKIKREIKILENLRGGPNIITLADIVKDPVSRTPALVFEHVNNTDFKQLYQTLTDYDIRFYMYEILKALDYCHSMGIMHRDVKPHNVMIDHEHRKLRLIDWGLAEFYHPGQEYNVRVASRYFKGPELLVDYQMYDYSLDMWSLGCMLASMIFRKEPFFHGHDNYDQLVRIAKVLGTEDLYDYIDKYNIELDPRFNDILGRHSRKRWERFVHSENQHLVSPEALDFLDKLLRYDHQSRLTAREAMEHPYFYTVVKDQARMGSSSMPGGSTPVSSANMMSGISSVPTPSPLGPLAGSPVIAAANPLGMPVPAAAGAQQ
T10 sequence (Q13131 whole entry): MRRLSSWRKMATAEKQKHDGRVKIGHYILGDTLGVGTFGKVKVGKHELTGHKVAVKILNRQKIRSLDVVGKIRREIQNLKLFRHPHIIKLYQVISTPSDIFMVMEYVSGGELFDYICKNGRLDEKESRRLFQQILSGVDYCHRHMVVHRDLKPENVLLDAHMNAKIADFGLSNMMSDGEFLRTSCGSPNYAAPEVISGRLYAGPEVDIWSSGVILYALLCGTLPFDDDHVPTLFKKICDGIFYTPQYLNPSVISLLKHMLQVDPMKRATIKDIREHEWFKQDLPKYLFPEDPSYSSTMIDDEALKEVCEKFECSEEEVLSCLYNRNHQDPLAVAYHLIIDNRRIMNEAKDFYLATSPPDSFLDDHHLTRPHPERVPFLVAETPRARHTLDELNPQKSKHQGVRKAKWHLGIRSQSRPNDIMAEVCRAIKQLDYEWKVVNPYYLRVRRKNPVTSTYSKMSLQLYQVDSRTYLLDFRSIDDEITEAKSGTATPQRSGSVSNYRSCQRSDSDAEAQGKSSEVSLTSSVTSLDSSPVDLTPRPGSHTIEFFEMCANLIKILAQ
T10 sequence (Q9Y478 whole entry partner): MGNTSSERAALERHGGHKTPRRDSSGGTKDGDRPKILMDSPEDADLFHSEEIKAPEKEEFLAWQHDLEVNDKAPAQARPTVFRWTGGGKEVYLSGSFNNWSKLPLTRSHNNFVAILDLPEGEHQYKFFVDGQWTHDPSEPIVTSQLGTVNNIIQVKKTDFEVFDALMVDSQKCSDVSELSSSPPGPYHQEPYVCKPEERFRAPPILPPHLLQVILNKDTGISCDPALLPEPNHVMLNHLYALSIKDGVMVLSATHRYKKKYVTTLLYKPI
T10 sequence (P54619 whole entry partner): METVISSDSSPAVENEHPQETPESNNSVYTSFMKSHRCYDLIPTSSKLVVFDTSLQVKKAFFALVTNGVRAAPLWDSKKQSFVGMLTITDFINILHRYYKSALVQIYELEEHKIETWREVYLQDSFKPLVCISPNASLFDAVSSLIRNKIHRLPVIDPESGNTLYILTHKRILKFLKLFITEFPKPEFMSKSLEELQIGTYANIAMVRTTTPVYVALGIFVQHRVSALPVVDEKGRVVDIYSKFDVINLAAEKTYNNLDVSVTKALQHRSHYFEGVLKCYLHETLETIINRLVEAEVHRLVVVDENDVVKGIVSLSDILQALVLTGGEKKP
T7 sequence (Q7KZI7 whole entry): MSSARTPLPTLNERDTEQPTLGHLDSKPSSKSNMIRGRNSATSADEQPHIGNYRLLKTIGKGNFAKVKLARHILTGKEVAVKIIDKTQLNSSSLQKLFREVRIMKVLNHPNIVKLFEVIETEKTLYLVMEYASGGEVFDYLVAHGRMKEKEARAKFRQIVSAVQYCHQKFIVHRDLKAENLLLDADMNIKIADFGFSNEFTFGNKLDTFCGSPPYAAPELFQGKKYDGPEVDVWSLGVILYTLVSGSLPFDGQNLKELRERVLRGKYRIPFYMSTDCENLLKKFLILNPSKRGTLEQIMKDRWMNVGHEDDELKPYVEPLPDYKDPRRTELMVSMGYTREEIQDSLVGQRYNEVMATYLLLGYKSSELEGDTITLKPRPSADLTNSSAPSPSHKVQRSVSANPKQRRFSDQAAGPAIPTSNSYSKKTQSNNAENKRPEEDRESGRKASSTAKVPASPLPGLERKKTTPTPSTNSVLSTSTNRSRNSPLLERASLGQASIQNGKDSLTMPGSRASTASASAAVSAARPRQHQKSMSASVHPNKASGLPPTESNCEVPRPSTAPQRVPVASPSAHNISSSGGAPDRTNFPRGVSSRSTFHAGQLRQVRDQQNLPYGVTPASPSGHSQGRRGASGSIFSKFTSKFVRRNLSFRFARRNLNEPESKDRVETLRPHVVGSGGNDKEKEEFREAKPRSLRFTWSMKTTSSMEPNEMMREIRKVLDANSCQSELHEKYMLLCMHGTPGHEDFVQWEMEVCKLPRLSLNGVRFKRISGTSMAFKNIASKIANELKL

For `Cc1ncc(-c2nc(Nc3ccc(C(=O)NCCN4CCCCC4)cc3)ncc2F)n1C(C)C` [Compound 3], the inhibition at 10 µM against CDC42 BPA (MRCKA) was 17%; on MARK3, 84%; against MUSK it was 92%; at ACVR1B (ALK4), 52%; on TXK, 40%; against PAK1 it was 51%. The inhibition at 10 µM against MARK2 is 89%; against CDK1/cyclin B, 96%; against PAK7 (KIAA1264) it was 71%; against AMPK A1/B1/G1 it was 95%; on PAK4 it was 81%; against ERBB2 (HER2) it was -1.66%. Moreover, the inhibition at 10 µM at CSNK2A1 (CK2 alpha 1) turned out to be 40%.
Turning to `Cc1cc(Nc2nc(N)nn2C(=O)NC(C)C)ccc1Cl` [Compound 5], the inhibition at 10 µM was 5% at CDC42 BPA (MRCKA); 25% against MARK3; 22% against MUSK; -8% against ACVR1B (ALK4); -9% against TXK; -12% at PAK1. For the same compound, the inhibition at 10 µM is 24% against MARK2; 56% against CDK1/cyclin B; 26% on PAK7 (KIAA1264); 23% on AMPK A1/B1/G1; 41% against PAK4; -29% against ERBB2 (HER2). The inhibition at 10 µM against CSNK2A1 (CK2 alpha 1) was found to be 8%.
Turning to “XMD8-92 [Compound 2, reference compound]”, the “CDC42 BPA (MRCKA) % Inhibition” value on CDC42 BPA (MRCKA) (10 µM compound, ATP Km app) is listed as -2.25%. The “MARK3 % Inhibition” value on MARK3 (10 µM compound, ATP Km app) was 28%. Also, the “MUSK % Inhibition” value at MUSK (10 µM compound, ATP Km app) is 21%. For the same compound, the “ACVR1B (ALK4) % Inhibition” value at ACVR1B (ALK4) (10 µM compound, ATP Km app) is reported as -2.75%. On TXK (10 µM compound, ATP Km app), the “TXK % Inhibition” value was 73%. The “PAK1 % Inhibition” value on PAK1 (10 µM compound, ATP Km app) is listed as 8%. Besides, at MARK2 (10 µM compound, ATP Km app), the “MARK2 % Inhibition” value is listed as 9%. Besides, at CDK1/cyclin B (10 µM compound, ATP Km app), the “CDK1/cyclin B % Inhibition” value was determined as 8.43%. The “PAK7 (KIAA1264) % Inhibition” value on PAK7 (KIAA1264) (10 µM compound, ATP Km app) is recorded as 6%. Further, the “AMPK A1/B1/G1 % Inhibition” value at AMPK A1/B1/G1 (10 µM compound, ATP Km app) worked out at 55%. Also, at PAK4 (10 µM compound, ATP Km app), the “PAK4 % Inhibition” value came to 26%. Also, the “ERBB2 (HER2) % Inhibition” value at ERBB2 (HER2) (10 µM compound, ATP Km app) is on record as -17%. For the same compound, on CSNK2A1 (CK2 alpha 1) (10 µM compound, ATP Km app), the “CSNK2A1 (CK2 alpha 1) % Inhibition” value is 8%.
